Measurements published in patent publication US8658677B2, “Pyridyl-2-methylamino compounds, compositions and uses thereof” (Aria Neurosciences Inc., priority 2011, dated 2014).
pEC50: −log10 of the molar value. “Also recorded” adds a separate entry of the source.

Assays:
[1] = test system: SK-N-SH human neuroblastoma cells; assay: Toxicity by MTT cell viability and LDH release assays; type: cell-based; settings: 100 μM
Experimental: The effect of 0.01-100 μmol/L concentrations of investigational compounds was tested on the viability of the N2a murine neuroblastoma cell line (American Type Culture Collection, Manassas, Va.). N2a cells were grown in Eagle's minimal essential medium with the addition of 10% fetal bovine serum, streptomycin and gentomycin (Sigma, St. Louis, Mo.), harvested with 2% trypsin and plated at 10,000 cells/100 μL per well in flatbottom, 96-well microtiter plates. The cells were allowed to attach to the plate overnight in an incubator (37° C., 5% CO2) and in the following morning stocks of investigational compounds (50 mmol/L stock diluted in DMSO) were added to cells to achieve the final concentration 0.01-100 μmol/L. Adequate amounts of DMSO (Dimethyl sulfoxide, Sigma, St. Louis, Mo.) were added to control cells. Cells were grown in the presence of investigational compounds for 48 h and then their viability was assessed using a metabolic assay, which is based on cleavage of the yellow tetrazolium salt (MTT) to purple formazan crystals by viable cells. The MTT assay (Roche Molecular Biochemicals, Indianapolis, Ind.) was performed according to the manufacturer's instructions. The results from cell culture neurotoxicity studies were evaluated by one-way analysis of variance, followed by a Dunnett's test as a post hoc analysis.
As shown in FIG. 2 (MTT assay), the compounds were tested for toxicity in SK-N-SH human neuroblastoma cells using MTT cell viability and LDH release (membrane integrity) assays.

[2] = biological target: T1, Aβ40 (Homo sapiens, UniProt P05067); assay: Thioflavin-T fibrillization assay; type: biochemical
T1 construct: host or cells: chemical solid-phase peptide synthesis (no expression host)
T1 sequence (P05067 672-711): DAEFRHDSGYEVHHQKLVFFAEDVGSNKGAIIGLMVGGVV
Description: Synthetic Aβ 1-40 peptide (sequence: […]) was synthesized at the W.M. Keck Foundation Facility (Yale University, New Haven, Conn.) by solid-phase technique on a p-methyl-benzhydrylamine resin, using a Biosearch SAM 2 synthesizer and purified by high performance liquid chromatography (HPLC) with the use of a reverse-phase support medium (Delta-Bondapak) on a 0.78×30 cm column with a 0-66% linear gradient of acetonitrile in 0.1% (v/v) trifluroacetic acid, as previously described. The peptide content of the eluate was monitored by measurement of its absorption at 214 nm. To verify the sequence and purity of the peptide, linear, time-of-flight mass spectrometry was performed at the Skirball Institute at New York University. For aggregation studies the peptide was diluted in 1,1,1,3,3,3-hexafluoro-2-propanol (HFIP; Sigma St. Loius, Mo.) at a concentration of 10 mM/mL, aliquoted and lyophilized. HFIP treatment renders peptides monomeric with minimal β-sheet content. Lyophilized peptides were stored at −80° C. and resuspended immediately prior to each experiment in the appropriate diluent.
The effect of compounds of the present invention on aggregation of Aβ 1-40 peptide was tested using a Thioflavin-T assay according to previously published methods. Aggregation of Aβ 1-40 incubated alone was measured for comparison. Aβ 1-40 was HFIP treated (as described above) and reconstituted in 100 mM Tris buffer (pH 7.4) to obtain a 100 μmol/L concentration. Stock of investigational compounds (50 mmol/L stock diluted in DMSO) was added to Aβ 1-40 to achieve of a concentration 10 or 100 μmol/L of investigational compound in 100 μmol/L of Aβ 1-40. All incubations were performed over a period of 7 days at 37° C. and the incubation mixture was slowly mixed for 6 hours every 24 h. At the conclusion of the experiment samples containing 15 μg of Aβ 1-40 with and without investigational compounds were added to 1 mL of 50 mM glycine, pH 9.2 and 2 μM of Thioflavin-T (Sigma Chemical, Co.; St. Louis, Mo.). Fluorescence was measured at an excitation of 435 nm and an emission of 485 nm in a Perkin-Elmer LS-50B fluorescence spectrophotometer (Perkin Elmer Instruments, Shelton, Conn.). A time scan of fluorescence was performed and three values after the decay reached a plateau (280, 290, 300 seconds) were averaged. The background fluorescence of 40 μL of Tris buffer added to 2 μM/L of Thioflavin-T solution was subtracted. Samples were run in duplicate. Differences in amount of fibrils formed in the presence of investigational compounds were evaluated by means of one-way ANOVA followed by a Dunnet post-hoc test using Statistica (version 6.1, StatSoft Inc., OK).
(§1) […] monomerized synthetic Aβ40 was incubated in 0.1M Tris pH 7.0, T=37° C. for 8 days in the presence of 0-100 μM concentration of compounds. […] An arrow indicates Aβ monomers clustered in ill developed protofibril. (C) Oligomerization assay. ARN4261 and ARN4224 reduced the amount of Aβ oligomers by 78% and 74%, respectively p<0.001. A compound 69b (GKLVFNmgA) was used as a positive control. 69b is homologous to Aβ sequence 17-21 and contains N-methyl glycine (Nmg), which renders it capable of anti-fibrillization and anti-oligomerization effect. (D) Principle of oligomerization assay. 100 μM Aβ40 was aggregated alone or with the addition of 10 μM of tested compounds [1:10 compound: Ab ratio] for 24 h in conditions promoting oligomers assembly, i.e., DMEM/F-12 medium+0.2% SDS, T=4° C. Prior to SDS-PAGE in non-reducing conditions samples were treated with glutaraldehyde. A strong smear of Aβ oligomers is seen between 37 and 70 KDa markers (arrows) in lane 2, and a dense band below the 25 KDa marker reflects Aβ monomers non-dissociated by 10% polyacrylamide gel. No oligomers above 37 KDa marker are seen in lane 1 containing only Aβ monomers run as a control. […] (E) TEM of Aβ oligomers. […] Yellow arrowhead indicates smaller oligomers.

[3] = biological target: T1, Aβ40; assay: Oligomerization assay; type: biochemical; settings: 100 μM Aβ40, 10 μM compound, 24 h; for amount of oligomers on SDS-PAGE: lanes 3-5
Experimental: as §1

[4] = test system: APP; assay: APP, C99, C83 and sAPP levels in 751APPSW CHO cells (immunoblot, immunostaining); type: cell-based, human; settings: 751APPSW CHO clone
[5] = test system: APP; assay: Acute treatment experiment: brain soluble Aβ40, APP, C99 and C83; type: in vivo, mice; settings: five days ip, ARN2966 50 mg/kg/day, Compound E 3 mg/kg/day
Experimental: Furthermore, we conducted an acute treatment experiment where six months old female APPSW/PS1dE9 mice (n=3/group) were treated for five days with ARN2966 (50 mg/kg/day), Compound E (3 mg/kg/day) or Vehicle injected intraperitoneally. Mice were killed three hours after the last injections. The level of soluble Aβ40 was measured in the brain aliquots following diethylamine (DEA) extraction. It was lower in ARN2966 and Compound E treated groups by 39% (p<0.05) and 60% (p<0.05) comparing to vehicle treated mice, respectively (p<0.05; FIG. 6E).
FIGS. 6.(A, B) ARN2966 treatment reduces load of Aβ plaques (n=10 ARN2966, n=15 Vehicle). (B) Representative photomicrograph of Th-S stained brain sections from vehicle and ARN2966 treated 10 month old, female APPSW/PS1dE9reveal a difference in the load of Aβ plaques. […] (D) Reduced Aβ40 and Aβ42 levels in FA extracted brain homogenate, which represent the total brain content of Aβ peptides in ARN2966 treated animals (ELISA). (E) Reduced soluble Aβ40 level in DEA extracted brain homogenate, of ARN2966 and Compound E treated mice (ELISA). […] Aβ concentrations in (C) (D) and (E) are given per gram of wet brain. All values are given as mean±SEM. Statistical analysis was done using two-tailed unpaired t-test, following confirmation of normal distribution of data using Shapiro-Wilk test.

## COc1ccc(/C=N/Nc2nc3ccccc3n2C)cc1O [ARN4224]
[1]
  toxicity in both MTT and LDH release assays: showed toxicity
[2]; 100 μM HFIP monomerized synthetic Aβ40, 0.1M Tris pH 7.0, 37° C., 8 days, 0-100 μM compound, read-out: EC50 of fibril reduction
  pEC50: 4.36
[2]; pH 7, read-out: EMAX (% of maximal fibril reduction)
  Emax: 55%
[3]; DMEM/F-12 + 0.2% SDS, 4° C.
  reduction of the amount of Aβ oligomers: 74%
[3]
  amount of oligomers on SDS-PAGE: reduced amount of oligomers

## C[C@H](NC(=O)Cc1cc(F)cc(F)c1)C(=O)N[C@H](C(=O)OC(C)(C)C)c1ccccc1 [Compound D, N-[N-(3,5-difluorophenacetyl)-L-alanyl]-S-phenylglycine t-butyl ester, reference compound]
[4]
  level of APP FL, C99 and C83 in cell lysates: some accumulation of APP FL, and substantial accumulation of C99 and C83; also recorded: modestly increased the APP FL level and substantially increased levels of C83 and C99

## C[C@H](NC(=O)Cc1cc(F)cc(F)c1)C(=O)N[C@H]1N=C(c2ccccc2)c2ccccc2N(C)C1=O [Compound E, (S,S)-2-[2-(3,5-difluorophenyl)-acetylamino]-N-(1-methyl-2-oxo-5-phenyl-2,3-dihydro-1H-benzo[e][1,4]diazepin-3-yl)-propionamide, reference compound]
[4]
  level of APP FL, C99 and C83 in cell lysates: some accumulation of APP FL, and substantial accumulation of C99 and C83; also recorded: modestly increased the APP FL level and substantially increased levels of C83 and C99
  sAPP (sAPPα and total sAPP stub) in conditioned media: increased level of sAPP stubs
[5]
  APP, C99 and C83 signal in brain homogenate (western immunoblotting): modest increase in C99 and C83 signal
[5]; killed three hours after last injection
  lowering of soluble Aβ40 (DEA extraction) in brain vs vehicle: 60%

## GKLVFNmgA [69b, reference compound]
[3]
  amount of oligomers on SDS-PAGE: reduced amount of oligomers
